Holding throughout (type): binding, mouse
For one assay, the system named is AN111. Description: Cross-reactivity of ANP-related polypeptides in the α-hANP radioimmunoassay with AN111. To be noted: ascitic fluid AN111A. The procedure: (§1) Using peptide and peptide fragment relating to α-hANP as a sample in α-hANP radioimmunoassay to be described in Example 5, cross reactivity was measured. It was confirmed that both of AN111 and AN117 recognize the C-terminus of α-hANP. Table 1 Assay buffer solution : 0.1 M phosphate buffer solution (pH 7.0) containing 0.372 g of disodium ethylenediamine tetraacetate, 0.063 g of cystine dihydrochloride, 0.262 g of ε-aminocaproic acid, 0.1g of sodium azide and 1 g of bovine serum albumin per liter. Dilute ascitic fluid : A[…] 110,000-fold diluted with Assay buffer solution or A[…] 62,000-fold diluted with Assay buffer solution. α-hANP standard : α-hANP serially two-fold diluted at a range of concentrations from 3.13 ng/ml to 100 ng/ml. 125 I -labelled α-hANP : 125I-labelled α-hANP (Amersham) diluted with Assay buffer solution up to approximately 3.7 KBq/ml. 1 % Bovine gamma globulin : dissolved in Assay buffer solution 37.5 % Polyethylene glycol : polyethylene glycol 6000 dissolved in Assay buffer solution without bovine serum albumin To a tube charged with 100 »l of α-hANP standard or a sample, 100 »l of 125I-labelled α-hANP, 100 »l of dilute ascitic fluid and 200 »l of 1 % bovine gamma globulin were added and the mixture was incubated overnight at 4 °C. […] After removing the supernatant, the radioactivity of the precipitate is measured by a gamma counter (Aloka, ARC-600 type)

A further assay concerns AN117. The experiment in a line: Cross-reactivity of ANP-related polypeptides in the α-hANP radioimmunoassay with AN117. To be noted: ascitic fluid AN117A. How it is done: as §1
Assay [1] relates to AN111 as an immobilized antibody, ¹²⁵I-labelled KY-ANP-I. Description: Cross-reactivity of ANP-related peptides in the sandwich radioimmunoassay (one-step). The conditions noted are these: one-step assay, AN111 immobilized on beads. From the text:
Anti-α-ANP [17-28] monoclonal antibody produced by the above hybridoma clone AN111 or AN117 (the antibody is hereinafter referred to as AN111 or AN117) which was immobilized on beads was used as an immobilized antibody. As a labelled antibody, anti-α-hANP [1 -28] monoclonal antibody produced by hybridoma clone KY-ANP-I (ECACC 87082001, EP-A-0 306 309) (the antibody is hereinafter referred to as KY-ANP-I) which was labelled with 125I was used. By the above antibodies, a sandwich radioimmunoassay of α-hANP was established. In 0.05 M phosphate buffer (pH 7.4) containing the IgG fraction (100 »g/ml) of A[…] or A[…] prepared in Item 1 above are immersed polystyrene beads (Ichico, 3.2 mm diameter) and allowed to stand at 4 °C for 20 hr. […] Radioactivity of 125 I -labelled antibody bound to the solid phase was measured by a gamma counter. A standard curve was prepared by plotting a concentration of α-hANP standard at abscissa and the measured radioactivity at ordinate. An ANP concentration in plasma was calculated by applying the radioactivity from the plasma sample to the standard curve. […]

The text below walks through data of patent EP0393640B1, “A monoclonal antibody recognizing C-terminus of ANP” (SHIONOGI SEIYAKU KABUSHIKI KAISHA trading under the name of …, priority 1989, dated 1990).

Ends that are not written are not given here.

For “β-hANP: antiparallel dimer of α-hANP (SLRRSSCFGGRMDRIGAQSGLGCNSFRY; ends and bridges not checked; also: antiparallel dimer of α-hANP; UniProt P01160 124-151, looked up)”, in the assay with AN111, the “Cross-reactivity (%) AN111” value is on record as 142%. Moreover, in the assay on AN117, the “Cross-reactivity (%) AN117” value turned out to be 136%. Further, the “Cross-Reactivity (Molar %)” value in assay [1] was found to be 100 Molar %.
